# Read-outs that look alike come from different tables or passages of the source.
# Columns and labels:
# [1] = target: recombinant poly(ADP-ribose) polymerase 2 (PARP2) (Homo sapiens, UniProt Q9UGN5); assay: PARP2 chemiluminescent assay; type: biochemical; settings: inhibition of PARP2 enzyme activity, chemiluminescence
# [2] = tested on: MDA-MB-436 cells; assay: Growth inhibition assay against BRCA mutant human breast cancer MDA-MB-436 cell line (CCK-8); type: cell-based; settings: Homo sapiens, MDA-MB-436, […], proliferation of MDA-MB-436 cells, 7 days
# [3] = target: T1, recombinant poly(ADP-ribose) polymerase 1 (PARP1) (Homo sapiens (Human), UniProt P09874); assay: biochemical
# [4] = target: recombinant poly(ADP-ribose) polymerase 2 (PARP2); assay: PARP2 chemiluminescent assay; type: biochemical; settings: inhibition of PARP2 enzyme activity, chemiluminescence
# [5] = target: PDE3A (Homo sapiens (Human), UniProt Q14432); assay: PDE3A fluorescence polarization (FP) assay; type: biochemical; settings: PDE3A enzyme activity, FAM-cAMP substrate
# [6] = target: T1, recombinant poly(ADP-ribose) polymerase 1 (PARP1)
# Sequence of recombinant poly(ADP-ribose) polymerase 2 (PARP2) (Homo sapiens, UniProt Q9UGN5) (Q9UGN5 whole entry, looked up): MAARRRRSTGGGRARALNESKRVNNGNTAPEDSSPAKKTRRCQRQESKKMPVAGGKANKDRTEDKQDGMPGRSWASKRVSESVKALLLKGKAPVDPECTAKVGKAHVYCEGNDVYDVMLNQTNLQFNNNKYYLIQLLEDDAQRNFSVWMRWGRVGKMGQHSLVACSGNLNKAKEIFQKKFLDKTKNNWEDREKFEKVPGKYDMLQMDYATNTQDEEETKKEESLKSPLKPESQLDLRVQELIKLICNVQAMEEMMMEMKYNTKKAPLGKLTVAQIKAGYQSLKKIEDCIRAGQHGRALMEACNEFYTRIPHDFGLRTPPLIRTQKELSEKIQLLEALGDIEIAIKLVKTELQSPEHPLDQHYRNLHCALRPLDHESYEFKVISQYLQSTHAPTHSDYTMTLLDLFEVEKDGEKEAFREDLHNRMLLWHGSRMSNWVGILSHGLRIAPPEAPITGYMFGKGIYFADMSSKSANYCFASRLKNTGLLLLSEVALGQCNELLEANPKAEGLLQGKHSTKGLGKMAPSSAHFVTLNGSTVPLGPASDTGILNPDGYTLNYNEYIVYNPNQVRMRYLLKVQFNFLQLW
# T1 sequence (P09874 whole entry): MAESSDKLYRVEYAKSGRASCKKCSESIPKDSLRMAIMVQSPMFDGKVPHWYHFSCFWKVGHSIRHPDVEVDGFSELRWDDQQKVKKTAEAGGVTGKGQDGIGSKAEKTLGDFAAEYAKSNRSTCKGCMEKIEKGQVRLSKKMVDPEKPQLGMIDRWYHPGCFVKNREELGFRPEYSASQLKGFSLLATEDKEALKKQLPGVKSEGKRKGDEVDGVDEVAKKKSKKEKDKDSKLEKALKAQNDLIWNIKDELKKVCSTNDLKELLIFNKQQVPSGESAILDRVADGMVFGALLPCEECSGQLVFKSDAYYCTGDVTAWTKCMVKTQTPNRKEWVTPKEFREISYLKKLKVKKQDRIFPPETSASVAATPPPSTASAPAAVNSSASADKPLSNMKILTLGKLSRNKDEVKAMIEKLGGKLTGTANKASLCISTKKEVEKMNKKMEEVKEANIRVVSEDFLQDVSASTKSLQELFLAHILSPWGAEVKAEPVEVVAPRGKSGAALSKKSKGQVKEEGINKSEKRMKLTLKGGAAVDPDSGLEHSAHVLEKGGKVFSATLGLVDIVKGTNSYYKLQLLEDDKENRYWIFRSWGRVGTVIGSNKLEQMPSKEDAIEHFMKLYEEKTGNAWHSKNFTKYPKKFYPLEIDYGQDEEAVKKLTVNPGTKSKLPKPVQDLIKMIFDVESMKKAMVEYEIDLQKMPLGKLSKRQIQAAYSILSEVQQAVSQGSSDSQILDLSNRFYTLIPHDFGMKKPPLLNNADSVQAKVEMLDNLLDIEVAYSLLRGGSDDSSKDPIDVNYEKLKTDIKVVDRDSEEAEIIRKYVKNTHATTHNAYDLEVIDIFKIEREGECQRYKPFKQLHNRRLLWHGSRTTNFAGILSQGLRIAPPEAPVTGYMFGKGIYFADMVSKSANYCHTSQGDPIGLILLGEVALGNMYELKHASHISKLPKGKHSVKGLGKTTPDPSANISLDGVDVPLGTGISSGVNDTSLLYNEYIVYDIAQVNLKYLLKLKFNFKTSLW
# Sequence of PDE3A (Q14432 whole entry): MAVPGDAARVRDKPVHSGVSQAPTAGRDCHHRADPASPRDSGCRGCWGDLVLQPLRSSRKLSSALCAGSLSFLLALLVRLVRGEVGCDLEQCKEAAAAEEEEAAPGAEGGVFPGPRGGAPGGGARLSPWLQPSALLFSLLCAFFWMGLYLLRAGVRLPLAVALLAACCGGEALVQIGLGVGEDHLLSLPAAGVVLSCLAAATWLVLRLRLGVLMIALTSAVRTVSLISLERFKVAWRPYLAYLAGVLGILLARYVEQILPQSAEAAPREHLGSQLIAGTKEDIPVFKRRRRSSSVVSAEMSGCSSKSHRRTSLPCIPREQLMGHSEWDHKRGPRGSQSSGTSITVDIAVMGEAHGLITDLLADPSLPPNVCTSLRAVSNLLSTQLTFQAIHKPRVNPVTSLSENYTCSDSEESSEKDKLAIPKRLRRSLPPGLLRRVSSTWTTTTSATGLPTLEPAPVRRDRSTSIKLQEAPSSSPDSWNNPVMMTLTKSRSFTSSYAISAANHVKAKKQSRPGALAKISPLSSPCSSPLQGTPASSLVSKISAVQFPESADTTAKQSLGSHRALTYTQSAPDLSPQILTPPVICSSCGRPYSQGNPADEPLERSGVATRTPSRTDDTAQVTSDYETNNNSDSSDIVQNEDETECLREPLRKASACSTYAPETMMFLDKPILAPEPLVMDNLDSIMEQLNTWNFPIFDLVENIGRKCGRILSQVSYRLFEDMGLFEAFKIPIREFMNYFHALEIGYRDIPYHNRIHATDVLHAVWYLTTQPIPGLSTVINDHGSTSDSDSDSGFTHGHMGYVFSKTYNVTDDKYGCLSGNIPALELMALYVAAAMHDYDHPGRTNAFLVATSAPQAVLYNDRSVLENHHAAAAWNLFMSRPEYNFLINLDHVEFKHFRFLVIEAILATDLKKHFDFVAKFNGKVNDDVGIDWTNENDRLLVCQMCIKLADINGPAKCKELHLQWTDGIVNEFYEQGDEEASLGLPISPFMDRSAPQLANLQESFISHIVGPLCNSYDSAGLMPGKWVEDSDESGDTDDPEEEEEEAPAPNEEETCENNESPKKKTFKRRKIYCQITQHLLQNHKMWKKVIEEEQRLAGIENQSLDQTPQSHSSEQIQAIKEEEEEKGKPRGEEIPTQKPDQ
IC50 [1] [nM],IC50 [2] [nM],IC50 [3] [nM],IC50 [4] [nM],IC50 [5] [nM],IC50 [6] [nM],Compound
78,,,,,,"CNC(=O)c1ccc(N2CCN(Cc3ccc4c(c3)[nH]c(=O)c3ccsc34)CC2)c(C)n1 [Example 1, 7-((4-(2-methyl-6-(methylcarbamoyl)pyridin-3-yl)piperazin-1-yl)methyl)thieno[3,2-c]quinolin-4(5H)-one]"
18.3,,,,,,"CNC(=O)c1ccc(N2CCN(Cc3ccc4c(c3)[nH]c(=O)c3cscc34)CC2)c(C)n1 [Example 3, 7-((4-(2-methyl-6-(methylcarbamoyl)pyridin-3-yl)piperazin-1-yl)methyl)thieno[3,4-c]quinolin-4(5H)-one]"
10.1,,,,,,"CNC(=O)c1ccc(N2CCN(Cc3ccc4c(c3)[nH]c(=O)c3sccc34)CC2)c(C)n1 [Example 5, 7-((4-(2-methyl-6-(methylcarbamoyl)pyridin-3-yl)piperazin-1-yl)methyl)thieno[2,3-c]quinolin-4(5H)-one]"
54.9,,,,,,"CNC(=O)c1ccc(N2CCN(Cc3ccc4c(c3)[nH]c(=O)c3cnn(C)c34)CC2)c(C)n1 [Example 8, 7-((4-(2-methyl-6-(methylcarbamoyl)pyridin-3-yl)piperazin-1-yl)methyl)-1-methyl-1,5-dihydro-4H-pyrazolo[4,3-c]quinolin-4-one]"
13.3,,,,,,"CNC(=O)c1ccc(N2CCN(Cc3cc(F)c4c(c3)[nH]c(=O)c3cscc34)CC2)c(C)n1 [Example 21, 7-((4-(2-methyl-6-(methylcarbamoyl)pyridin-3-yl)piperazin-1-yl)methyl)-9-fluorothieno[3,4-c]quinolin-4(5H)-one]"
16.9,3.73,,,,,"CNC(=O)c1ccc(N2CCN(Cc3cc(F)c4c(c3)[nH]c(=O)c3sccc34)CC2)c(C)n1 [Example 38, 9-fluoro-7-((4-(2-methyl-6-(methylcarbamoyl)pyridin-3-yl)piperazin-1-yl)methyl)thieno[2,3-c]quinolin-4(5H)-one]"
5370,5.09,0.83,,,,"CNC(=O)c1ccc(C2CCN(Cc3ccc4c([nH]c(=O)c5occc54)c3F)CC2)c(F)n1 [Example 109, 7-((4-(2-fluoro-6-(methylcarbamoyl)pyridin-3-yl)piperidin-1-yl)methyl)-6-fluorofuro[2,3-c]quinolin-4(5H)-one]"
,1.58,,2500,> 30000,0.48,"CNC(=O)c1ccc(N2CCN(Cc3ccc4c([nH]c(=O)c5c(C)cnn54)c3F)CC2)c(C#N)n1 [Example 128, 7-((4-(2-cyano-6-(methylcarbamoyl)pyridin-3-yl)piperazin-1-yl)methyl)-6-fluoro-3-methylpyrazolo[1,5-a]quinoxalin-4(5H)-one]"
,5.02,,> 10000,> 30000,0.5,"Cc1cnn2c1c(=O)[nH]c1c(F)c(CN3CCN(c4ccc(C(=O)NCC(F)F)nc4F)CC3)ccc12 [Example 129, 7-((4-(2-fluoro-6-(2,2-difluoroethylcarbamoyl)pyridin-3-yl)piperazin-1-yl)methyl)-6-fluoro-3-methylpyrazolo[1,5-a]quinoxalin-4(5H)-one]"
,23,,> 10000,> 30000,0.57,"CNC(=O)c1ccc(N2CCN(Cc3ccc4c([nH]c(=O)c5c(C)cnn54)c3F)CC2)c(C(F)(F)F)n1 [Example 133, 7-((4-(2-trifluoromethyl-6-(methylcarbamoyl)pyridin-3-yl)piperazin-1-yl)methyl)-6-fluoro-3-methylpyrazolo[1,5-a]quinoxalin-4(5H)-one]"
,2.24,,1250,28900,0.84,"CNC(=O)c1ccc(N2CCN(Cc3ccc4c([nH]c(=O)n5cc(C)nc45)c3F)CC2)c(F)n1 [Example 140, 8-((4-(2-fluoro-6-(methylcarbamoyl)pyridin-3-yl)piperazin-1-yl)methyl)-2-methyl-7-fluoroimidazo[1,2-c]quinazolin-5(6H)-one]"
,24.6,,1890,> 25000,1.29,"CNC(=O)c1ccc(N2CCN(Cc3ccc4c([nH]c(=O)n5c(C)cnc45)c3F)CC2)c(F)n1 [Example 141, 8-((4-(2-fluoro-6-(methylcarbamoyl)pyridin-3-yl)piperazin-1-yl)methyl)-3-methyl-7-fluoroimidazo[1,2-c]quinazolin-5(6H)-one]"
,3.5,,166,1200,0.46,"CNC(=O)c1ccc(N2CCN(Cc3ccc4c(c3)[nH]c(=O)c3cocc34)CC2)c(F)n1 [Example 143, 7-((4-(2-fluoro-6-(methylcarbamoyl)pyridin-3-yl)piperazin-1-yl)methyl)furo[3,4-c]quinolin-4(5H)-one]"
2400,2,0.56,,10900,,"O=C(NCC(F)F)c1ccc(N2CCN(Cc3ccc4c([nH]c(=O)c5occc54)c3F)CC2)c(F)n1 [Example 147, 6-fluoro-7-((4-(2-fluoro-6-(2,2-difluoroethylcarbamoyl)pyridin-3-yl)piperazin-1-yl)methyl)furo[2,3-c]quinolin-4(5H)-one]"
,8.02,,145,> 30000,0.61,"CNC(=O)c1ccc(N2CCN(Cc3cc4[nH]c(=O)c5c(C)cnn5c4cc3F)CC2)c(F)n1 [Example 168, 8-fluoro-7-((4-(2-fluoro-6-(methylcarbamoyl)pyridin-3-yl)piperazin-1-yl)methyl)-3-methylpyrazolo[1,5-a]quinoxalin-4(5H)-one]"
,1.58,,93.5,630,0.32,"CNC(=O)c1ccc(N2CCN(Cc3cc(F)c4c(c3)[nH]c(=O)c3c(F)cnn34)CC2)c(F)n1 [Example 177, 3,9-difluoro-7-((4-(2-fluoro-6-(methylcarbamoyl)pyridin-3-yl)piperazin-1-yl)methyl)pyrazolo[1,5-a]quinoxalin-4(5H)-one]"
,4.49,,67.1,> 30000,0.5,"CNC(=O)c1ccc(N2CCN(Cc3ccc4c([nH]c(=O)c5c(C(F)(F)F)cnn54)c3F)CC2)c(F)n1 [Example 179, 7-((4-(2-fluoro-6-(methylcarbamoyl)pyridin-3-yl)piperazin-1-yl)methyl)-3-trifluoromethyl-6-fluoropyrazolo[1,5-a]quinoxalin-4(5H)-one]"
,1.24,,431,> 30000,0.24,"CCNC(=O)c1ccc(N2CCN(Cc3ccc4c([nH]c(=O)c5c(F)cnn54)c3F)CC2)c(F)n1 [Example 180, 7-((4-(2-fluoro-6-(ethylcarbamoyl)pyridin-3-yl)piperazin-1-yl)methyl)-3,6-difluoropyrazolo[1,5-a]quinoxalin-4(5H)-one]"
,1.9,,315,> 30000,0.23,"O=C(NC1CC1)c1ccc(N2CCN(Cc3ccc4c([nH]c(=O)c5c(F)cnn54)c3F)CC2)c(F)n1 [Example 181, 7-((4-(2-fluoro-6-(cyclopropylcarbamoyl)pyridin-3-yl)piperazin-1-yl)methyl)-3,6-difluoropyrazolo[1,5-a]quinoxalin-4(5H)-one]"
,1.4,,93.5,> 30000,0.32,"CNC(=O)c1ccc(N2CCN(Cc3cc4[nH]c(=O)c5c(F)cnn5c4cc3F)CC2)c(F)n1 [Example 182, 7-((4-(2-fluoro-6-(methylcarbamoyl)pyridin-3-yl)piperazin-1-yl)methyl)-3,8-difluoropyrazolo[1,5-a]quinoxalin-4(5H)-one]"
,1.76,,1390,1590,0.28,"CNC(=O)c1ccc(N2CCN(Cc3cc4[nH]c(=O)c5c(F)cnn5c4cc3F)CC2)c(C)n1 [Example 183, 7-((4-(2-methyl-6-(methylcarbamoyl)pyridin-3-yl)piperazin-1-yl)methyl)-3,8-difluoropyrazolo[1,5-a]quinoxalin-4(5H)-one]"

Compound,IC50 [1] [nM],IC50 [2] [nM],IC50 [3] [nM],IC50 [4] [nM],IC50 [5] [nM],IC50 [6] [nM]
"CNC(=O)c1ccc(C2=CCN(Cc3ccc4c([nH]c(=O)c5c(C)cnn54)c3F)CC2)cn1 [Example 152, 6-fluoro-3-methyl-7-((6-methylcarbamoyl-3′,6′-dihydro-[3,4′-bipyridin]-1′(2′H)-yl)methyl)pyrazolo[1,5-a]quinoxalin-4(5H)-one]",> 1110,19.3,,,> 25000,
"CNC(=O)c1ccc(C2=CCN(Cc3ccc4c([nH]c(=O)c5c(C)cnn54)c3F)CC2)c(F)n1 [Example 165, 6-fluoro-7-((2-fluoro-6-methylcarbamoyl-3′,6′-dihydro-[3,4′-bipyridin]-1′(2′H)-yl)methyl)-3-methylpyrazolo[1,5-a]quinoxalin-4(5H)-one]",> 3330,2.75,,,,0.26
"CNC(=O)c1ccc(C2=CCN(Cc3ccc4c([nH]c(=O)c5c(F)cnn54)c3F)CC2)c(F)n1 [Example 197, 7-((2-fluoro-6-methylcarbamoyl-3′,6′-dihydro-[3,4′-bipyridin]-1′(2′H)-yl)methyl)-3,6-difluoropyrazolo[1,5-a]quinoxalin-4(5H)-one]",774,1.19,,,,0.15

# Reference: patent US20250215013A1, “SUBSTITUTED TRICYCLIC COMPOUNDS AS PARP INHIBITORS AND THE USE THEREOF” (IMPACT THERAPEUTICS (SHANGHAI), INC., priority 2022, published 2025)
